This is an account of results in patent publication US6608178B1, “5-hydroxytryptophol (5-HTOL) derivatives, antibodies, immunoassays and detection of recent alcohol consumption” (Alco Dia A.B., priority 1996, dated 2003).

One data set has as its system mouse monoclonal anti-5-HTOL antibody. Put plainly: Cross reactivity in the competitive immunoassay (labelled conjugate IV vs. anti-5-HTOL antibody). It counts as binding. Conditions: allowable maximal cross reactivity in urine for a 50 nM detection limit of T-5-G; the tested antibody complied with these criteria. The protocol: Crossreactivity for various substances was measured in the immunoassay method described below with dilutions (in the diluent) of the tested substance used in stead of urine or standard. The concentration range tested for each substance covered three magnitudes and was up to or above one magnitude the highest noted literature value.
Diluent was 0.05 M sodium phosphate buffer, pH 7.0, containing 0.01 M EDTA, 0.1% Tween® and 1% BSA. Decanting solution was Pharmacia decanting suspension without added antibody suspension (Pharmacia Diagnostics AB). μ-agarose particles carried covalently bound sheep-anti-mouse antibody.
Assay Procedure: Pipette to a test tube 50 μl urine or standard, 50 μl tracer solution, 50 μl antibody solution (one of the above-mentioned six selected clones, 5 μg/ml), mix on shaker ˜600 rpm for ˜1 min, allow to stand for 1.5 h at room temperature, 50 μl of the sheep anti-mouse micro-agarose suspension (˜100 mg/ml), mix as above and let stand for another 0.5 h, then add 2 ml decanting solution, centrifuge 10 min at 3000 rpm, with tubes in Pharmacia decanting racks, in the JR-3.2 Rack Rotor, in a Beckman J-6B centrifuge. Within 5 min after completed centrifugation decant the supernatant and let tube racks stand inverted on absorbtive tissue for 2 min. Finally the remaining radioactivity in the tubes is measured in a gamma counter. A standard curve is made with T-5-G in the diluent at 10, 100, 1000 and 10000 nmol/L.
For `O=C(O)Cc1c[nH]c2ccc(O)cc12` [5-HIAA, 5-hydroxyindole-3-acetic acid], the “Acceptable Crossreactivity” value is ≤ 0.07%.

Take `N[C@@H](Cc1c[nH]c2ccc(O)cc12)C(=O)O` [5-hydroxytryptophan]: the “Acceptable Crossreactivity” value is ≤ 0.1%.

Take `COc1ccc2[nH]cc(CCN)c2c1` [5-methoxytryptamine]: the “Acceptable Crossreactivity” value is ≤ 5%.

As to `COc1ccc2[nH]cc(CCO)c2c1` [5-methoxytryptophol], the “Acceptable Crossreactivity” value was ≤ 5%.

As to `C[C@]12CC[C@@H]3c4ccc(O[C@@H]5O[C@H](C(=O)O)[C@@H](O)[C@H](O)[C@H]5O)cc4CC[C@H]3[C@@H]1CCC2=O` [estrone-β-D-glucuronide], the “Acceptable Crossreactivity” value is ≤ 50%.

`O=Cc1c[nH]c2ccccc12` [indole-3-aldehyde]: the “Acceptable Crossreactivity” value is reported as ≤ 0.05%.

Consider `O=C(O)Cc1c[nH]c2ccccc12` [indolyl acetic acid], for which the “Acceptable Crossreactivity” value is listed as ≤ 0.07%.

Consider `O=S(=O)(O)Oc1c[nH]c2ccccc12` [indoxyl sulphate], for which the “Acceptable Crossreactivity” value is ≤ 0.002%.

Turning to `O=C(O)[C@H]1O[C@@H](Oc2c[nH]c3ccccc23)[C@H](O)[C@@H](O)[C@@H]1O` [indoxyl-β-D-glucuronide], the “Acceptable Crossreactivity” value is on record as ≤ 0.002%.

On to `COc1ccc2[nH]cc(CCNC(C)=O)c2c1` [melatonin], for which the “Acceptable Crossreactivity” value was ≤ 50%.

Consider `O=C(O)[C@H]1O[C@@H](Oc2ccc([N+](=O)[O-])cc2)[C@H](O)[C@@H](O)[C@@H]1O` [p-nitrophenyl-β-D-glucuronide], for which the “Acceptable Crossreactivity” value is ≤ 0.002%.

Regarding `NCCc1c[nH]c2ccc(O)cc12` [serotonin, 5-hydroxytryptamine], the “Acceptable Crossreactivity” value is ≤ 7%.

Consider `CC12CCC(=O)C=C1CCC1C2CCC2(C)C(OC3OC(C(=O)O)C(O)C(O)C3O)CCC12` [testosterone-β-D-glucuronide], for which the “Acceptable Crossreactivity” value was ≤ 50%.

With `NCCc1c[nH]c2ccccc12` [tryptamine], the “Acceptable Crossreactivity” value is ≤ 6%.

Take `N[C@@H](Cc1c[nH]c2ccccc12)C(=O)O` [tryptophan]: the “Acceptable Crossreactivity” value is given as ≤ 0.6%.

Tested on in the next data set: not given
Assay: not given
The note with it: human urine; cited from earlier work.
Take `O=C(O)[C@H]1O[C@@H](Oc2ccc3[nH]cc(CCO)c3c2)[C@H](O)[C@@H](O)[C@@H]1O` [T-5-G, 3-(2-hydroxyethyl)indole-5-yl-O-β-D-glucopyranosiduronic acid]: the “Share of urinary 5-HTOL conjugated with glucuronic acid” value is recorded as 75-95%.
